Test results reported in patent US20240400606A1, “SMALL MOLECULE ACTIVATORS OF THE IMMUNE SYSTEM” (THE BOARD OF TRUSTEES OF THE UNIVERSITY OF ILLINOIS, priority 2021, published 2024).
Entries after “also recorded” stand apart in the source; their conditions may differ.

Legend:
[1] = target: SULT2B1b (Homo sapiens (Human), UniProt O00204); experiment: Compound aggregation assay (LC-MS/MS assay with BSA decoy protein); format: biochemical; details: decoy protein BSA 0.1 mg/mL, dose response; listed as IB:10:D
Description: Compound Aggregation Assay. Stock solutions of DHEA (5 mM in DMSO) and compound of interest (5 mM in DMSO) were prepared. For each 60 μL reaction, to a 1.5 mL Eppendorf tube was added 26.7 μL 1× assay buffer supplemented with 0.2 mg/mL bovine serum albumin (BSA) and 1.2 μL compound of interest or DMSO. BSA-containing 1× assay buffer and compound of interest were incubated at room temperature for 5 minutes before addition of 1.2 μL of 5 mM DHEA, and 0.9 μL 6.6 mM PAPS. SULT2B1b was diluted to 1.5 μg/μL in protein storage buffer then down to 0.8 μg/μL in 1× activity assay buffer. 30 μL of 0.8 μg/μL SULT2B1b was added to each reaction. Reactions were incubated for 2 hours at 37° C. with shaking at 250 rpm. To quench, 30 μL reaction mix was added to 30 μL ice cold 0.5% HCl in MeCN, then centrifuged at 13,000 xg at room temperature for 3 min. 50 μL supernatant was transferred to an empty Eppendorf tube and submitted for LC-MS/MS quantification (UIUC Metabolomics Center). For samples run without BSA, an identical protocol was followed using 26.7 μL 1× assay buffer that had not been supplemented with BSA. Controls: Reaction mix made with DHEA, DMSO in place of compound of interest (DHEA control).
Percent inhibition was calculated as: 100−[100×(DHEA-sulfate producedcompound of interest/DHEA sulfate producedDHEA)].

[2] = target: human carbonic anhydrase II (hCAII) (Homo sapiens (Human), UniProt P00918); experiment: Human carbonic anhydrase II assay; format: biochemical; details: concentrations up to 200 μM; listed as IB:10:D
Description: Human Carbonic Anhydrase II Assay. Stock solutions of compound of interest (in DMSO), acetazolamide (10 μM in DMSO), hCAII solution (65 μL of 33 μM stock to 1.935 mL hCAII assay buffer to make 1 μM hCAII solution), and 4-nitrophenylacetate (4-NPA; 60 μL of 100 mM DMSO stock to 3 mL hCAII assay buffer to make 2 mM 4-NPA solution). To the wells of a 384-well clear bottom plate were added 1 μL compound of interest or 10 μM acetazolamide. 20 μL of hCAII solution was added to all wells except no enzyme control well, in which case 20 μL hCAII assay buffer was added instead. Plates were incubated for 11 minutes at room temperature before addition of 4-NPA solution to all wells. Absorbance at 348 nm was read every 10 seconds of 11 minute total run time. Three technical replicates were assessed per plate. Controls: hCAII+4-NPA (DMSO added in place of compound of interest, DMSO control), 4-NPA background (no enzyme, DMSO added in place of compound of interest, 4-NPA control), hCAII+4-NPA+acetazolamide (acetazolamide added in place of compound of interest, known hCAII inhibitor).
Percent inhibition calculated as: 100−[100×[(AbSaverage, compound of interest−AbSaverage, 4-NPA)/(AbSaverage, DMSO−AbSaverage, 4-NPA)]].

[3] = Pharmacokinetic mouse studies; format: in vivo, C57BL/6 mice; details: for concentration in the serum: mice
Description: Pharmacokinetic Analysis. […] Whole blood was collected, centrifuged, and EDTA serum separated for quantification by […] methods (UIUC Metabolomics Center, Urbana, IL).
Pharmacokinetic mouse studies: Compound (3) was formulated in 50% DMSO, 50% Peg400 at 40 mg/mL (for 200 mg/kg injection), Compound was injected intraperitoneally into female C57BL/6 mice (3 per time point). Blood from the mice were harvested at each time point. Serum was separated and concentration in the serum was quantified by LC-MS/MS.

[4] = test system: whole cell CS levels in T47D; experiment: Whole cell cholesterol sulfate quantification, T47D; format: cell-based; details: 6.25 μM, 72 hours
Description: General Whole Cell Cholesterol Sulfate Quantification. 60×15 mm tissue culture dishes were seeded with MCF-7 at 2×10^6 cells/dish or T47D at 1×10^6 cells per dish, 5 mL total media volume, and allowed to adhere overnight. Compounds of interest were dissolved in DMSO. Cells were treated with 25 μL 1.25 mM compound of interest stock (6.25 μM final compound concentration, 0.5% final DMSO concentration) or DMSO for 72 hours. To harvest, media was aspirated, and cells were washed once with PBS before detaching with trypsin. Trypsin was quenched with media. Cells were centrifuged at 300 xg for 3 minutes and supernatant was discarded. Cells were resuspended in media and counted using a Countess 3 automated cell counter (Thermo Fisher Scientific). 1.5×10^6 cells were collected, washed twice with 1 mL PBS, then pelleted and stored at −80° C. until lysis. […] 100 μL of supernatant was transferred to an empty Eppendorf tube and submitted for LC-MS/MS quantification (UIUC Metabolomics Center), along with 5 mM cholesterol sulfate sodium salt standard.
General LC-MS/MS Quantification Method. Both DHEAS and CS samples were analyzed by 6500 QTRAP (Sciex, Redwood City, CA) liquid chromatography-tandem mass spectrometry. […] Cholesterol-sulfate and DHEA-sulfate were detected by multiple reaction monitoring (MRM) at m/z 465→97.0 and 367.0→97.0 respectively. […]

[5] = female, mouse, 200 mg/kg, C57BL/6 mice, single IP dose, serum

Chain of SULT2B1b (O00204 whole entry): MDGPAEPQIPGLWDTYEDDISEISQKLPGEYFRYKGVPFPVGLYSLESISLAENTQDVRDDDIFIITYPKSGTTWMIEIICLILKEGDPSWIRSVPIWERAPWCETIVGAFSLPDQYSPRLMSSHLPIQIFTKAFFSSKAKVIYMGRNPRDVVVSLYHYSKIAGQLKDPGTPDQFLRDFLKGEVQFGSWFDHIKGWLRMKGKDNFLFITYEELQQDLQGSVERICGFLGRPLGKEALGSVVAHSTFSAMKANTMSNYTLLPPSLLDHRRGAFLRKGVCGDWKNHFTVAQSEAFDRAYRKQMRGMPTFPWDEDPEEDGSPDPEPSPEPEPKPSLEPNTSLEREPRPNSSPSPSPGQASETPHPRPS

## C[C@]12CCC(=O)N(Cc3ccc(Cl)cc3)C1=CC[C@@H]1[C@@H]2C(=O)C[C@]2(C)C(=O)CC[C@@H]12 [Compound 1, (4aR,4bS,6aS,9aS,9bS)-1-(4-chlorobenzyl)-4a,6a-dimethyl-3,4,4a,6,6a,8,9,9a,9b,10-decahydro-1H-indeno[5,4-f]quinoline-2,5,7(4bH)-trione]
[1]
  shift in SULT2B1b inhibition in the presence of BSA: minimal shift; also recorded: no change
[2]
  inhibition of hCAII: does not inhibit; also recorded: No inhibition

## C[C@]12CCC(=O)N(Cc3ccc(Br)cc3)C1=CC[C@@H]1[C@@H]2C(=O)C[C@]2(C)C(=O)CC[C@@H]12 [Compound 3, (4aR,4bS,6aS,9aS,9bS)-1-(4-bromobenzyl)-4a,6a-dimethyl-3,4,4a,6,6a,8,9,9a,9b,10-decahydro-1H-indeno[5,4-f]quinoline-2,5,7(4bH)-trione]
[3]; C57BL/6 mice, single IP dose, serum
  CL: 5.434 L/h/kg
[3]; [5]
  AUC: 36.8 µg·h/mL
  Cmax: 19.8 µg/mL
  MRT: 1.86 h
  half-life: 1.29 h
[3]; 200 mg/kg intraperitoneally
  concentration in the serum: ~50 µM
[3]; stated as 150 mg/kg IP
  concentration in the serum: ~50 µM
[4]
  whole cell CS levels vs DMSO: confirmed
